Key:
[1] = test system: MCF-7 cells; test: Viability assay using MTT; format: cell-based; conditions: Homo sapiens, MCF7, 24 h, compounds 0.1 to 100 μM, unit inferred, read-out: MCF-7 (IC50), Viability Assays
Procedure: (§1) Human cancer cell lines derived from breast, MCF-7, endocrine-resistant MDA-MB-231, and chemoresistant MCF-7TN-R were cultured in 75 cm^2 culture flasks in DMEM (Invitrogen, Co.) supplemented with 10% FBS (Life Technologies, Inc., Gaithersburg, Md.), basic minimum MEM essential (50×, Invitrogen Co.) and MEM non-essential (100×, Invitrogen, Co.) amino acids, sodium pyruvate (100× Invitrogen Co.), antimicotic-antibiotic (10,000 U/mL penicillin G sodium; 10,000 μg/mL streptomycin sulphate; 25 μg/mL amphotericin B as Fungizone®), and human recombinant insulin (4 mg/mL Invitrogen Co). Culture flasks were maintained in a tissue culture incubator in a humidified atmosphere of 5% CO2 and 95% air at 37° C.
(§2) The effect of ceramide and compounds on cell growth was determined using MTT viability assays. MCF-7, MDA-MB-231, or MCF-7TN-R cells were plated at […] cells per well in a 96-well plate in phenol-free DMEM supplemented with 5% FBS and allowed to adhere overnight. Cells were then treated with compounds I-1, I-2, I-3, or I-4 (ranging from 0.1 to 100 μM) for 24 h. Following that treatment, 20 μL of MTT (5 mg/ml) reagent was added to each well prior to incubation for 4 hr. Cells were then lysed with 20% SDS in 50% dimethylformamide. The pH and absorbances were read on an EL×808 Microtek plate reader (Winooski, Vt.) at 550 nm, with a reference wavelength of 630 nm.
(§3) Statistical analysis of IC50 values were calculated from concentration-response curves using GraphPad Prism 5.0 (Graphpad Software, San Diego, Calif.), using with the equation: Y=Bottom+(Top−bottom)/1+10 Log EC50−X assuming a standard slope, where the response goes from 10% to 90% of maximal as X increases over two log units. Differences in IC50 were compared using Student's unpaired t-test with p<0.05 as the limit of statistical significance. Experiments comparing multiple concentrations to the control were tested with one-way ANOVA with Bonferroni post-test to compare individual concentrations. All statistical analysis were done using GraphPad Prism 5.0. […].

[2] = test system: MCF-7TN-R cells; test: Viability assay using MTT; format: cell-based; conditions: Homo sapiens, 24 h, compounds 0.1 to 100 μM, unit inferred, read-out: MCF-7TN-R (IC50), Viability Assays
Procedure: as §1, §2, §3

[3] = test system: MDA-MB-231 cells; test: Viability assay using MTT; format: cell-based; conditions: Homo sapiens, 24 h, compounds 0.1 to 100 μM, unit inferred, read-out: MDA-MB-231 (IC50), Viability Assays
Procedure: as §1, §2, §3

[4] = test system: MCF-7 cells; test: Clonogenic survival assay; format: cell-based, Human
Procedure: as §1
(§4) MCF-7, MDA-MB-231, or MCF-7TN-R cells were plated in 6-well plates at 1000 cells per well. Twenty-four hours later, cells were treated with varying concentrations of the compound and then monitored microscopically for colony growth. Ten days later the cells were fixed with 3% glutaraldehyde. Following fixation for 15 min, the plates were washed and stained with a 0.4% solution of crystal violet in 20% methanol for 30 min, washed with PBS, and air-dried. Colonies of 30 cells were counted as positive. Results are normalized to percent clonogenic survival from untreated control cells. Statistical analysis of IC50 values were calculated from concentration-response curves using GraphPad Prism 5.0 (Graphpad Software, San Diego, Calif.), using with the equation: Y=Bottom+(Top−bottom)/1+10 Log EC50−X.
(§5) Compounds II-1, II-2, II-3, II-4, II-5, and II-6 were compared for their inhibitory effect on breast cancer clonogenic survival. Cells were treated with varying concentration of compound, ranging from 0.1 μM-20 μM for 10 days. […] At endpoint, cell colonies were fixed, stained and recorded as percent vehicle control.

[5] = test system: MCF-7TN-R cells; test: Clonogenic survival assay; format: cell-based, Human; conditions: Homo sapiens, 240 h
Procedure: as §1, §4, §5

[6] = test system: MDA-MB-231 cells; test: Clonogenic survival assay; format: cell-based, Human; conditions: Homo sapiens, MDA-MB-231, 240 h
Procedure: as §1, §4, §5

[7] = Homo sapiens, MCF7, 240 h, Table 1B, 10 days, read-out: MCF-7 (IC50), Clonogenic Survival Assays
[8] = Table 1B, 10 days, read-out: MCF-7TN-R (IC50), Clonogenic Survival Assays
[9] = Table 1B, 10 days, read-out: MDA-MB-231 (IC50), Clonogenic Survival Assays
[10] = Homo sapiens, MCF7, 240 h, Table 2, 0.1 μM-20 μM for 10 days, read-out: MCF-7 (IC50), clonogenic survival
[11] = Table 2, 0.1 μM-20 μM for 10 days, read-out: MCF-7-TNR (IC50), clonogenic survival
[12] = Table 2, 0.1 μM-20 μM for 10 days, read-out: MDA-MB-231 (IC50), clonogenic survival

| IC50 [1] | IC50 [2] | IC50 [3] | Compound | IC50 [4, 7] | IC50 [5, 8] | IC50 [6, 9] | IC50 [4, 10] | IC50 [5, 11] | IC50 [6, 12] | IC50 ([4]; Table 2, 0.1 μM-20 μM for 10 days, read-out: MCF-7 (IC50), clonogenic survival) |
| --- | --- | --- | --- | --- | --- | --- | --- | --- | --- | --- |
| 22.6 µM | 2.4 µM | 5.4 µM | CCCCCCCCCCCCC/C=C/[C@@H](O)[C@H](CO)NC(=O)C1CCCCC1 [Compound I-1, N-((2S,3R,E)-1,3-dihydroxyoctadec-4-en-2-yl)cyclohexanecarboxamide] | 1.5 µM | 0.7 µM | 1.6 µM | – | – | – | – |
| 6.3 µM | 3 µM | 3.7 µM | CCCCCCCCCCCCC/C=C/[C@@H](O)[C@H](CO)NCc1ccccc1 [Compound I-2, (2S,3R,E)-2-(benzylamino)octadec-4-ene-1,3-diol] | 1.5 µM | 0.6 µM | 1.1 µM | – | – | – | – |
| 9 µM | 3.6 µM | 4.8 µM | CCCCCCCCCCCCC/C=C/[C@@H](O)[C@H](CO)/N=C/c1ccccc1 [Compound I-3, (2S,3R,E)-2-((E)-benzylideneamino)octadec-4-ene-1,3-diol] | 1.7 µM | 0.1 µM | 1.4 µM | – | – | – | – |
| 13.5 µM | 4.2 µM | 8 µM | CCCCCCCCCCCCC/C=C/[C@@H](O)[C@H](CO)NC(=O)C(C)(C)C [Compound I-4, N-((2S,3R,E)-1,3-dihydroxyoctadec-4-en-2-yl)pivalamide] | 1.5 µM | 0.6 µM | 0.5 µM | – | – | – | – |
| – | – | – | CCCCCCCCCCCCCCNC(=O)[C@H](CO)NC(=O)C1CCCCC1 [II-1, (S)—N-(3-hydroxy-1-oxo-1-(tetradecylamino)propan-2-yl)cyclohexanecarboxamide] | – | – | – | 7.2 µM | 23.5 µM | 11.5 µM | – |
| – | – | – | CCCCCCCCCCCCCCNC(=O)[C@H](CO)NCc1ccccc1 [II-2, (S)-2-(benzylamino)-3-hydroxy-N-tetradecylpropanamide] | – | – | – | 4.97 µM | 15.2 µM | 10.5 µM | 5 µM |
| – | – | – | CCCCCCCCCCCCCCNC(=O)[C@H](CO)NC(=O)C(C)(C)C [II-4, (S)-3-hydroxy-2-pivalamido-N-tetradecylpropanamide] | – | – | – | 6.7 µM | 11.1 µM | 6.1 µM | – |
| – | – | – | CCCCCCCCCCCCCCNC(=O)[C@H](CO)NC(=O)c1cc(OC)cc(OC)c1 [II-5, (S)—N-(3-hydroxy-1-oxo-1-(tetradecylamino)propan-2-yl)-3,5-dimethoxybenzamide] | – | – | – | 11.2 µM | 15 µM | 6.6 µM | – |
| – | – | – | CCCCCCCCCCCCCCNC(=O)[C@H](CO)NC(C)=O [II-6, (S)-2-acetamido-3-hydroxy-N-tetradecylpropanamide] | – | – | – | 44.7 µM | 52.7 µM | 75.1 µM | – |
